# Results taken from patent US20240016788A1, “PHARMACEUTICAL COMPOSITION FOR PREVENTING OR TREATING DIABETIC AND POSTMENOPAUSAL OSTEOPOROSIS, CONTAINING ADIPORON” (PnP Biopharm Co., Ltd., priority 2020, published 2024).
# How the values were obtained:
# [1] = tested on: type 2 diabetic db/db mice; test: Immunofluorescence staining and western blot of bone tissue, db/db mice; type: in vivo; settings: adiporon 30 mg/kg/day, 4 weeks
# Description: A leptin receptor-defective type 2 diabetic animal model (db/db mice) and a normal control group (db/m mice) were used, and the experiment was performed by dividing into 4 groups as follows: non-diabetic control group (dm cont, n=8), non-diabetic adiporon treatment group (dm+AdipoR, n=8), diabetic control group (db cont, n=8) and diabetic adiporon treatment group (db+AdipoR, n=8).
# The control group was fed a normal diet, and the adiporon treatment group was fed a diet comprising adiporon (30 mg/kg/day) for 4 weeks from 16 weeks of age. During the experiment, body weight was measured every week, fasting blood glucose was measured using an Accu-Chek meter (Roche Diagnostics, St. Louis, MO) every 2 weeks after blood was collected from the tail vein, and glycated hemoglobin (HbA1c) was measured every 4 weeks using a […] automatic analyzer (Bayer healthcare LLC, IN) after blood was collected from the tail vein. The temperature and humidity of the breeding room were maintained at 20˜25° C. and 50˜60%, respectively, and the lights were turned on and off at 12-hour intervals.
# After removing tissues of the femur and L5 lumbar vertebrae, some of them were fixed in 10% formalin for immunostaining and decalcified. Thereafter, after neutralization with 0.5M Phosphate buffer (pH 7.4), washing, and embedding in paraffin. Tissue sections were cut to a thickness of 5 μm, and hematoxylin and eosin staining (H&E staining), trichrome staining, and Safranin O staining were performed. In bone tissue, double immunofluorescence staining method was performed using anti-adiponectin receptor 1/2 antibody, anti-perilipin-1 antibody, anti-RANKL antibody, anti-TNF-α antibody, and ApopTag Fluorescein In Situ Apoptosis Detection Kit (Chemicon International, Temecula, CA) and expression was observed using a confocal microscope.
# Protein was extracted using Pro-Prep Protein Extraction Solution (Intron Biotechnology, Gyeonggi-Do, Korea), and SDS-PAGE (sodium dodecyl sulfate-polyacrylamide gel electrophoresis) was performed. The separated protein was transferred to a nitrocellulose membrane (Amersham Co., Buckinghamshire, England) and treated with Tris buffered saline (in TBS-T: 0.1% Tween-20 in Tris buffer saline, pH 7.5) containing 3% skim milk. After blocking for an hour, the blots were reacted in adiponectin receptor 1/2, total AMPK, phospho-Thr172AMPK, PGC-1α, Nrf-2, SOD1/2, NQO1, HO-1, NOX4, NF-κB and β-actin primary antibody solution, washing, reacting with a secondary antibody against each primary antibody, and then photosensitizing through ECL (Pierce, Rockford IL) to confirm the band. The expression level of each protein was normalized according to β-actin.
# [2] = tested on: ovariectomized C57BL/6 mice; test: Micro-CT of ilium (femur) and lumbar vertebra 5, ovariectomized mice; type: in vivo; settings: 6 weeks
# Description: 7 weeks after ovariectomization or sham surgery of 7-week-old C57BL/6 mice, normal feed group (adiporon non-administered group; control group) administration group, 2.5 mg/kg day or 25 mg/kg day, respectively Feed comprising adiporon was consumed for 6 weeks from 14 weeks of age. Body weight was measured every week during the experiment period, and the experiment was conducted after 6 weeks of administration. The imaging was performed with micro-CT (Skyscan 1172, Belgium), the tube voltage was 60 kV, the tube current was 167 uA, 0.5 mm aluminum filtration was used, and the pixel size was 5.9 μm. For the shooting angle, a 2-dimensional image was reconstructed with Nrecon Reconstruction (Skyscan, Belgium). For 3D image analysis, CTAn (Skyscan, Belgium) was used, images were obtained by rotating 360°, and exposure time was 440 ms. A total of 7 types of indicators were used in this invention. BMD (bone mineral density, bone density) was measured based on phantoms of 0.25 g/cm^3 and 0.75 g/cm^3. BV/TV (Bone volume/Total volume, percent bone volume, %) is the ratio of voxels representing the solid region out of the total voxels present in the binarized and surfaced volume of interest, and it means the ratio occupied by bone trabeculae within the volume of interest, and i.s (Interception surfaces, mm2) means the generation of new bone. i.s (Interception surfaces, mm^2) means the creation of new bone. BS/BV (Bone surface/Bone volume, bone specific surface, mm^−1) is the ratio of the voxel surface area to the number of voxels in the binarized solid region within the volume of interest and it means the ratio of the surface area of the trabecular bone to the volume of the trabecular bone. The lower the value, the higher the bone strength. Tb.Th (trabecular thickness, mm) is obtained by averaging the diameters of these spheres, after placing a sphere comprising the corresponding voxel for each voxel representing the solid region within the volume of interest so that the size of the sphere is the largest that includes only the solid region and it means the average thickness of the trabecular bone. After making it possible, it is obtained by averaging the diameters of these spheres, which means the average thickness of the trabecular bone. In the same way, using Tb.Sp (trabecular separation, mm), the average length between trabecular lines and Tb.N (trabecular number, mm^−1) were used to obtain the average number of trabecular lines.
# [3] = vertebrae (lumbar vertebrae 5), adiporon 2.5 mg/kg day
# [4] = vertebrae (lumbar vertebrae 5), adiporon 25 mg/kg day
structure (smiles),measurement,setting,value
Cl.O=C(COc1ccc(C(=O)c2ccccc2)cc1)NC1CCN(Cc2ccccc2)CC1 [adiporon],Activation of adiponectin-receptor 1-AMPK,"[1]; ilium (femur), db/db mice",increased
same,Decreased expression of adiponectin-receptor 1/2 (double immunofluorescence staining),"[1]; ilium (femur), db/db mice",restored
same,Expression of PGC1α,"[1]; ilium (femur), db/db mice",increased
same,Expression of adiponectin-receptor 2-PPARα,"[1]; ilium (femur), db/db mice",increased
same,"Expression of antioxidant enzymes (Nrf2, NQO1, HO-1, SOD1, SOD2)","[1]; ilium (femur), db/db mice",normalized
same,"Expression of oxidative stress markers (NOX4, NFkB)","[1]; ilium (femur), db/db mice",normalized
same,Increase in apoptosis (TUNEL staining-positive),"[1]; ilium (femur), db/db mice",restored
same,Increase in inflammatory response (TNF-α),"[1]; ilium (femur), db/db mice",restored
same,Increase of adipocytes (perilipin-1 immunofluorescent staining),"[1]; ilium (femur), db/db mice",restored
same,Increased expression of RANKL,"[1]; ilium (femur), db/db mice",restored
same,Activation of adiponectin-receptor 1-AMPK,"[1]; lumbar vertebrae 5, db/db mice",increased
same,Decreased expression of adiponectin-receptor 1/2 (double immunofluorescence staining),"[1]; lumbar vertebrae 5, db/db mice",reversed
same,Expression of PGC1α,"[1]; lumbar vertebrae 5, db/db mice",increased
same,Expression of adiponectin-receptor 2-PPARα,"[1]; lumbar vertebrae 5, db/db mice",increased
same,"Expression of antioxidant enzymes (Nrf2, NQO1, HO-1, SOD1, SOD2)","[1]; lumbar vertebrae 5, db/db mice",normalized
same,"Expression of oxidative stress markers (NOX4, NFkB)","[1]; lumbar vertebrae 5, db/db mice",normalized
same,Increase in apoptosis (TUNEL staining-positive),"[1]; lumbar vertebrae 5, db/db mice",restored
same,Increase in inflammatory response (TNF-α),"[1]; lumbar vertebrae 5, db/db mice",restored
same,Increase of adipocytes (perilipin-1 immunofluorescent staining),"[1]; lumbar vertebrae 5, db/db mice",restored
same,Increased expression of RANKL,"[1]; lumbar vertebrae 5, db/db mice",restored
same,Bone mineral density indicator (micro-CT),"[2]; ilium, adiporon 2.5 mg/kg day",increased and improved
same,Bone surface indicator (micro-CT),"[2]; ilium, adiporon 2.5 mg/kg day",increased and improved
same,Bone volume indicator (micro-CT),"[2]; ilium, adiporon 2.5 mg/kg day",increased and improved
same,Trabecular number indicator (micro-CT),"[2]; ilium, adiporon 2.5 mg/kg day",increased and improved
same,Trabecular thickness indicator (micro-CT),"[2]; ilium, adiporon 2.5 mg/kg day",increased and improved
same,Bone mineral density indicator (micro-CT),"[2]; ilium, adiporon 25 mg/kg day",increased and improved
same,Bone surface indicator (micro-CT),"[2]; ilium, adiporon 25 mg/kg day",increased and improved
same,Bone volume indicator (micro-CT),"[2]; ilium, adiporon 25 mg/kg day",increased and improved
same,Trabecular number indicator (micro-CT),"[2]; ilium, adiporon 25 mg/kg day",increased and improved
same,Trabecular thickness indicator (micro-CT),"[2]; ilium, adiporon 25 mg/kg day",increased and improved
same,Bone mineral density indicator (micro-CT),[2]; [3],increased and improved
same,Bone surface indicator (micro-CT),[2]; [3],increased and improved
same,Bone volume indicator (micro-CT),[2]; [3],increased and improved
same,Trabecular number indicator (micro-CT),[2]; [3],increased and improved
same,Trabecular thickness indicator (micro-CT),[2]; [3],increased and improved
same,Bone mineral density indicator (micro-CT),[2]; [4],increased and improved
same,Bone surface indicator (micro-CT),[2]; [4],increased and improved
same,Bone volume indicator (micro-CT),[2]; [4],increased and improved
same,Trabecular number indicator (micro-CT),[2]; [4],increased and improved
same,Trabecular thickness indicator (micro-CT),[2]; [4],increased and improved
